From patent EP0831811B1, “CARBAZOLES FOR TREATING MICROBIAL INFECTIONS” (priority 1995, dated 1996)
Where a name gives a salt, the structure may show the parent alone.

Columns and labels:
Calf thymus DNA = assay: DNA binding by thermal melting (ΔTm); settings: for DNA binding calf thymus ΔTm(°C): absorbance at 259 nm, heated at 18°C/h, average of at least two determinations
Procedure: DNA binding potency was determined for each of the compounds because previous work had determined that the binding of dicationic molecules to DNA is a prerequisite for their antimicrobial activity. See e.g., Tidwell, R.R., et al., Antimicrob. Agents Chemother. 37, 1713-1716 (1993); Bell, C. A., et al., Antimicrob. Agents Chemother. 35, 1099-1107 (1991). The DNA binding of the compounds was determined by the change in melting of the DNA bound to the experimental compounds. The method is well documented and is a considered a standard method for determining DNA binding strength. See Cory, M.. et al., J. Med. Chem. 25, 431-438 (1992). In brief, a UV-visible light spectrophotometer with a cuvette changer was interfaced to a microcomputer that recorded the cuvette temperature and DNA-absorbance data at 259 nm as the sample was heated at a rate of 18°C/h. Calf thymus DNA was used at an initial absorbance of 0.3A259. The midpoint of each denaturation curve was determined after graphic selection on the computer of the starting and ending absorbance temperature for each curve of each experiment. DNA or DNA bound to experimental compound was run in each experiment and the ΔTms were determined from the polynucleotide Tm for that experiment. […] The data reported in Table 1 represent the average of at least two determinations of ΔTm.

Pneumocystis carinii = assay: Rat model of P. carinii pneumonia (PCP): cysts per gram of lung; type: in vivo; settings: for response vs control in vivo at 5 mg/kg: immunosuppressed rats, dose 5.0 mg/kg iv once daily for 14 days, means ± SEM, percent of saline-treated controls; for anti-P. carinii activity (in words): rat model, carbazoles tested at one half the dose of pentamidine
Procedure: (§1) The activity of the compounds against P. carinii was carried out according to an established method. See Tidwell, R. R., et al., J. Med. Chem. 33, 1252-1257 (1990); Jones, S. K., et al., Antimicrob. Agents Chemother. 34, 1026-1030 (1990); Tidwell, R.R., et al., Antimicrob. Agents Chemother. 37, 1713-1716 (1993). The induction and treatment of P. carinii pneumonia (PCP) was carried out with only minor alterations to published methods. See Frenkel, J.K. et al., Lab. Invest. 15, 1559 (1966); Hughes, W.T. et al., Antimicrob. Agents Chemother. 5, 289 (1974). Briefly, male Sprague-Dawley rats (barrier raised, not certified virus-free) weighing 150-200g each, were obtained (Hilltop Laboratories, Scottsdale, PA). Immediately upon arrival, the animals were caged individually and begun on a low protein (8%) diet and on drinking water containing tetracycline (0.5 mg/mL) and dexamethasone ([…]). This regimen was continued for eight weeks. At the beginning of the seventh week, animals were divided into groups of 8 or more, and the test compounds were administered for 14 days by single daily IV injection. Generally, the daily dose was 5 mg/kg of body weight and was dissolved in 0.4 mL of saline. Saline- and pentamidine-treated groups were included as controls.
Animals were sacrificed at the end of the eighth week by chloroform inhalation. The right lung was inflated in situ with 10% formalin and fixed for histological examination. The lung tissue was sectioned in the long axis and exposed to the GMS stain, which selectively identified the walls of the P. carinii cysts.
The left lung was weighed, ground through a No. 60 wire mesh screen, and suspended 1:10 (wt/vol) in 10 mM β-mercaptoethanol-Hanks' balanced salts solution (HBSS) without cations. Slides were prepared by spotting 5 µL of lung homogenate diluted 1:10 in HBSS with β-mercaptoethanol and allowed to air dry. The slides were stained with cresyl violet, and the cysts were counted by a blinded protocol. The number of cysts per gram of original lung tissue was calculated, and the groups were reported as the percentages of saline-treated controls.
Anti-P. carinii activity is measured by the reduction in the number of cysts per gram of lung tissue for treated animals as compared to untreated controls. The anti-P. carinii value for each compound is expressed as the percent of cysts in the treatment group as compared to the control group. […] It should be noted that compound 3 was tested at one half the dose of pentamidine as were all of the carbazoles.

[1] = Toxicity seen in the rat PCP treatment study; design: species or system Sprague-Dawley rats; settings: in vivo, iv, 5 mg/kg
Procedure: as §1

Cryptosporidium parvum = assay: Neonatal mouse model of Cryptosporidium parvum infection: oocysts in the bowel; type: in vivo; settings: for Efficacy: C. parvum
Procedure: Besides the potency shown by this compound against P. carinii infection in the rat model, the compound was also effective in a neonatal mouse model of Cryptosporidium parvum infection. This model has been described in detail in previous reports. See Blagburn, B. L.; et al., Antimicrob. Agents Chemother. 35, 1520-1523 (1991). The compound's activity against C. parvum is measured by a reduction in the number of oocysts detected in the bowel of treated mice compared to untreated controls.

Cryptococcus neoformans = assay: Broth dilution antifungal susceptibility test (NCCLS M27-P), MIC and MFC; type: cell-based
Procedure: (§2) Activity of the compound was assessed using a standard in vitro fungal cell growth inhibition assay (the broth dilution antifungal susceptibility testing of yeast, proposed standard document M27-P, validated by the National Committee for Clinical Laboratory Standards, 1992). Briefly, this broth dilution procedure uses PMI media, and an inoculum of […] with media alone. After the minimal inhibitor concentration was determined by the above procedure, tubes with no visible growth were subcultured to determine the minimum fungicidal concentration by using criteria of less than 0.01% survival of original inoculum. Two organisms were tested: (1) H99, a clinical isolate of C. neoformans which is fully susceptible to azoles and polyenes in vitro and in vivo; and (2) A39, a clinical isolate of C. albicans which is fully susceptible to azoles and polyenes.
(§3) The MFC's (minimum fungicidal concentration) for compound 9 against these two important AIDS-associated fungal infections are shown in Table 2.

C. albicans = assay: as above; type: cell-based
Procedure: as §2, §3

[2] = Pneumocystis carinii, 336 h, read-out: in vivo activity against PCP cysts/g lung % control
[3] = in vitro fungal cell growth inhibition

| SMILES | DNA binding calf thymus ΔTm(°C) (Calf thymus DNA) | response vs control in vivo at 5 mg/kg (Pneumocystis carinii; [2]) [%] | toxicity [1] | other results |
| --- | --- | --- | --- | --- |
| c1cc2[nH]c(-c3ccc4[nH]c5ccc(-c6nc7cc(C8=NCCN8)ccc7[nH]6)cc5c4c3)nc2cc1C1=NCCN1 [Compound 8, 3,6-bis[2-imidazolinyl)-2-benzimidazoyl]carbazole tetrahydrochloride] | 22.2 | 61.9 ± 14.5 | 0 | DNA binding (in words) (Calf thymus DNA): highly potent as a DNA binding agent; anti-P. carinii activity (in words) (Pneumocystis carinii): failed to exhibit anti-P. carinii significantly more potent than the control drug, pentamidine; anti-P. carinii activity (in words) (Pneumocystis carinii; listed as compound 8): only moderate activity |
| Cn1c2ccc(C3=NCCN3)cc2c2cc(C3=NCCN3)ccc21 [Compound 4, 3,6-bis(2-imidazolinyl)-9-methylcarbazole dihydrochloride] | – | 0.17 ± 0.11 | – | – |
| c1cc2c(cc1C1=NCCN1)c1cc(C3=NCCN3)ccc1n2CC1CCCCC1 [Compound 5, 9-cyclohexylmethyl-3,6-bis(2-imidazolinyl)carbazole dihydrochloride] | – | 35.8 ± 4.87 | 0 | – |
| Cn1c2ccc(C3=NCCCN3)cc2c2cc(C3=NCCCN3)ccc21 [Compound 6, 3,6-bis[2-(1,4,5,6-tetrahydropyrimidinyl)]-9-methylcarbazole dihydrochloride] | 13.6 | 0.14 ± 0.05 | – | – |
| CC(C)N=C(N)c1ccc2[nH]c3ccc(C(N)=NC(C)C)cc3c2c1 [Compound 2, 3,6-diisopropylamidinocarbazole dihydrochloride] | – | 0.11 ± 0.08 | 0 | – |
| N=C(N)c1ccc(OCCCCCOc2ccc(C(=N)N)cc2)cc1 [pentamidine, reference compound] | 10.7 | – | – | response vs control in vivo at 10 mg/kg (Pneumocystis carinii; Pneumocystis carinii, iv, 336 h, read-out: in vivo activity against PCP cysts/g lung % control): 1.84 ± 0.82% |
| c1cc2c(cc1C1=NCCN1)[nH]c1cc(C3=NCCN3)ccc12 [Compound 10, 2,7-bis(2-imidazolinyl)carbazole dihydrochloride] | – | 0.5 ± 0.33 | 0 | – |
| Cl.Cl.N=C(N)c1ccc2[nH]c3ccc(C(=N)N)cc3c2c1 [Compound 1, 3,6-diamidinocarbazole dihydrochloride] | 17.2 | 0.8 ± 0.36 | 0 | – |
| c1cc2c(cc1C1=NCCCN1)c1cc(C3=NCCCN3)ccc1n2CC1CCCCC1 [Compound 7, 3,6-bis[2-(1,4,5,6-tetrahydropyrimidinyl)]-9-cyclohexylmethylcarbazole dihydrochloride] | 7.3 | 4.1 ± 1.59 | – | anti-P. carinii activity (in words) (Pneumocystis carinii): failed to exhibit anti-P. carinii significantly more potent than the control drug, pentamidine |
| c1cc2[nH]c3ccc(C4=NCCN4)cc3c2cc1C1=NCCN1 [Compound 3, 3,6-bis(2-imidazolinyl)carbazole dihydrochloride] | – | 0.06 ± 0.02 | 0 | – |
| Cl.Cl.N=C(N)c1ccc2c(c1)[nH]c1cc(C(=N)N)ccc12 [Compound 9, 2,7-diamidinocarbazole dihydrochloride] | 19.0 | 0.17 ± 0.06 | 0 | activity against C. parvum (in words) (Cryptosporidium parvum): effective; Efficacy (Cryptosporidium parvum; 14.6 µmol/kg oral): 6.1 % control; Efficacy (Cryptosporidium parvum; 29.3 µmol/kg oral): 0.30% control; Efficacy (Cryptosporidium parvum; 58.6 µmol/kg oral): 0.89 % control; MIC (Cryptococcus neoformans; Cryptococcus neoformans, in vitro, H99 clinical isolate of C. neoformans): 6.25 mg/L; MFC (Cryptococcus neoformans; Cryptococcus neoformans, in vitro, H99 clinical isolate of C. neoformans, less than 0.01% survival of original inoculum): 50 mg/L; activity in vitro (in words) (Cryptococcus neoformans; [3]): highly active; MIC (C. albicans; Candida albicans, in vitro, A39 clinical isolate of C. albicans): 0.78 mg/L; MFC (C. albicans; Candida albicans, in vitro, A39 clinical isolate of C. albicans, less than 0.01% survival of original inoculum): 1.56 mg/L; activity in vitro (in words) (C. albicans; [3]): highly active |
